# Results taken from patent US7956219B2, “Amino acid analogues” (Baker IDI Heart and Diabetes, priority 2002, dated 2011).
# Columns and labels:
# [1] = test system: rat aorta; assay: Isolated aortic ring assay: acetyl choline-induced vascular relaxation; settings: rat aorta sections; compound at 10^−8M
# Protocol: FIG. 3 illustrates the augmentation of vascular relaxation produced by increasing concentrations of acetyl choline in the absence of and presence of test compounds. C indicates control.
# Initially four compounds were tested for their effect on vascular tone, using an isolated aortic ring assay. In this assay, sections of rat aorta are mounted in an organ bath, and tension is determined continuously using a strain gauge, as described by Furchgott & Zawadski (1980). The effect of test compounds on the vasorelaxant effect of the endothelial-dependent vasodilator acetyl choline (ACh) was examined. […] It will be appreciated that similar experiments may be performed using sections of human aorta, coronary artery or peripheral artery obtained at surgery.
# [2] = test system: HeLa cells; assay: Radiolabelled L-arginine uptake into HeLa cells; format: cell-based
# Protocol: C: Control performed in the absence of test compound. […] Panel A: Compound A4; Panel B: Compound A7; Panel C: G10; Panel D: Compound H4.
# In parallel with this assay, the capacity for these compounds to alter arginine entry into cells was assessed. Initial studies were conducted in HeLa cells. Arginine entry was determined by the rate of entry of radiolabelled L-arginine into the cells, using the method of Kaye et al., (2000). Of the total library, four compounds were identified which had inhibitory activity at a Ki of 100 μM. These compounds were as follows:
# In the light of the foregoing discussion, we propose that this effect may be associated with therapeutic benefit.
# [3] = test system: EA.hy.926; assay: Arginine uptake by endothelial cell line EA.hy.926; format: cell-based; settings: Homo sapiens, read-out: Arg uptake (% control) from FIG. 4; for activity at 0.1 µM: compound at 10^-7 M (bottom value); for activity at 0.01 µM: compound at 10^-8 M (top value)
# From the text: Further studies have been performed to characterize the effects of compounds from library M0006 on arginine transport in endothelial cells. Studies performed in the endothelial cell line EA.hy.926 (Harrison-Shostak et al, 1997) have identified a number of compounds which exert a stimulatory effect on L-arginine transport. This cell line is considered to be more physiologically relevant than HeLa cells to the target conditions, and in fact was more sensitive. Table 16 summarises results for the compounds so far identified which have the highest activity in the arginine transport assay.
SMILES,augmentation of acetyl choline-induced vascular relaxation [1],"effect on L-arginine transport at low concentration ([2]; HeLa cells, low concentration (10^−7 and 10^−8 M))",effect on L-arginine transport at high concentration ([2]; high concentration),activity at 0.1 µM [3],activity at 0.01 µM [3]
N=C(NCc1cc(C(F)(F)F)cc(C(F)(F)F)c1)Nc1ccc(C(N)=O)cc1OCC1CCC1 [Compound A4],significant augmentation,–,–,–,–
"N=C(NCc1cc(C(F)(F)F)cc(C(F)(F)F)c1)Nc1ccc(C(N)=O)cc1OCC1CCCCC1 [Compound G10, 3-Cyclohexylmelhoxy-4-[N′-(3,5-trifluoromethyl-benzyl)-guanidino]-benzamide]",–,enhance L-arginine transport at low concentration,inhibit such transport at high concentration,–,–
"N=C(NCc1ccc(Cl)c(Cl)c1)Nc1ccc(C(N)=O)cc1OCC1CCCCC1 [Compound H4, 3-Cyclohexylmethoxy-4-[N′-(3,4-dichloro-benzyl)-guanidino]-benzamide]",significant augmentation,–,–,–,–
N=C(NCc1cc(C(F)(F)F)cc(C(F)(F)F)c1)Nc1ccc(C(N)=O)cc1OCC1CCC1 [M0006 01 A04],–,–,–,108%,103%
"N=C(NCc1ccc(Cl)c(Cl)c1)Nc1ccc(C(N)=O)cc1OCC1CCC1 [M0006 01 A07, 3-Cyclobutylmethoxy-4-[N′-(3,4-dichloro-benzyl)-guanidino]-benzamide]",–,–,–,66%,87%
"N=C(NCc1ccccc1F)Nc1ccc(C(N)=O)cc1OCC1CCC1 [M0006 01 A11, 3-Cyclobutylmethoxy-4-[N′-(2-fluoro-benzyl)-guanidino]-benzamide]",–,–,–,128%,159%
"Cc1ccc(CNC(=N)Nc2ccc(C(N)=O)cc2OCC2CCC2)cc1 [M0006 01 A12, 3-Cyclobutylmethoxy-4-[N′-(4-methyl-benzyl)-guanidino]-benzamide]",–,–,–,160%,179%
"COc1ccccc1CNC(=N)Nc1ccc(C(N)=O)cc1OCC1CCC1 [M0006 01 B04, 3-Cyclobutylmethoxy-4-[N′-(2-methoxy-benzyl)-guanidino]-benzamide]",–,–,–,122%,130%
"N=C(Nc1ccc(C(N)=O)cc1OCC1CCC1)NC1CCCCC1 [M0006 01 B12, 3-Cyclobutylmethoxy-4-(N′-cyclohexyl-guanidino)-benzamide]",–,–,–,134%,161%
"CC(CNC(=N)Nc1ccc(C(N)=O)cc1OCC1CC1)c1ccccc1 (centres unmarked) [M0006 01 C12, 3-Cyclopropylmethoxy-4-[N′-(2-phenyl-propyl)-guanidino]-benzamide]",–,–,–,133%,116%
"CC(CNC(=N)Nc1ccc(C(N)=O)cc1OCC1CCCCO1)c1ccccc1 (centres unmarked) [M0006 01 F05, 4-[N′-(2-Phenyl-propyl)-guanidino)-3-(tetrahydro-pyran-2-ylmethoxy)-benzamide]",–,–,–,130%,135%
"N=C(NCc1ccccc1)Nc1ccc(C(N)=O)cc1OCC1CCCCO1 (centres unmarked) [M0006 01 F09, 4-(N′-Benzyl-guanidino)-3-(tetrahydro-pyran-2-ylmethoxy)-benzamide]",–,–,–,110%,140%
"N=C(NCc1ccc2c(c1)OCO2)Nc1ccc(C(N)=O)cc1OCC1CCCCO1 (centres unmarked) [M0006 01 F10, 4-(N′-Benzo[1,3]dioxol-5-ylmethyl-guanidino)-3-(tetrahydro-pyran-2-ylmethoxy)-benzamide]",–,–,–,131%,119%
"CC(C)CNC(=N)Nc1ccc(C(N)=O)cc1OCC1CCCCO1 (centres unmarked) [M0006 01 F12, 4-(N′-Isobutyl-guanidino)-3-(tetrahydro-pyran-2-ylmethoxy)-benzamide]",–,–,–,146%,103%
N=C(NCc1cc(C(F)(F)F)cc(C(F)(F)F)c1)Nc1ccc(C(N)=O)cc1OCC1CCCCC1 [M0006 01 G10],–,–,–,188%,125%
"N=C(NCc1ccc(Cl)c(Cl)c1)Nc1ccc(C(N)=O)cc1OCC1CCCCC1 [M0006 01 H04, 3-Cyclohexylmethoxy-4-[N′-(3,4-dichloro-benzyl)-guanidino]-benzamide]",–,–,–,92%,99%
"COc1ccccc1CNC(=N)Nc1ccc(C(N)=O)cc1OCC1CCCCC1 [M0006 01 H10, 3-Cyclohexylmethoxy-4-[N′-(2-methoxy-benzyl)-guanidino]-benzamide]",–,–,–,146%,153%
"N=C(NCc1ccccc1)Nc1ccc(C(N)=O)cc1OCC1CCCCC1 [M0006 01 H11, 4-(N′-Benzyl-guanidino)-3-cyclohexylmethoxy-benzamide]",–,–,–,190%,131%
"N=C(NCC1CCCCC1)Nc1ccc(C(N)=O)cc1OCC1CCCCC1 [M0006 02 A10, 3-Cyclohexylmethoxy-4-(N′-cyclohexylmethyl-guanidino)-benzamide]",–,–,–,127%,123%
"N=C(NCNc1ccc([N+](=O)[O-])cn1)Nc1ccc(C(N)=O)cc1OCc1ccccc1 [M0006 02 D06, 3-Benzyloxy-4-{N′-[(5-nitro-pyridin-2-ylamino)-methyl]-guanidino}-benzamide]",–,–,–,138%,176%
"N=C(NCc1ccccc1)Nc1ccc(C(N)=O)cc1OCc1ccccc1 [M0006 02 E06, 4-(N′-Benzyl-guanidino)-3-benzyloxy-benzamide]",–,–,–,160%,167%
"N=C(NCc1ccco1)Nc1ccc(C(N)=O)cc1OCc1ccccc1 [M0006 02 F06, 3-Benzyloxy-4-(N′-furan-2-ylmethyl-guanidino)-benzamide]",–,–,–,126%,158%
"Cc1cccc(COc2cc(C(N)=O)ccc2NC(=N)NCc2ccco2)c1 [M0006 02 H08, 4-(N′-Furan-2-ylmethyl-guanidino)-3-(3-methyl-benzyloxy)-benzamide]",–,–,–,182%,108%
